{"source": "ChEMBL document CHEMBL4393720", "about": "“Design, synthesis and biological evaluation of bromophenol-thiazolylhydrazone hybrids inhibiting the interaction of translation initiation factors eIF4E/eIF4G as multifunctional agents for cancer treatment” (Eur J Med Chem, 2019)", "key": {"[1]": {"test_system": "A549", "assay": "Antiproliferative activity against human A549 cells assessed as inhibition of cell growth incubated for 48 hrs by MTT assay", "assay_type": "functional, cell-based", "details": "A549, 48 h"}, "[2]": {"test_system": "Caco-2", "assay": "Antiproliferative activity against human Caco2 cells assessed as inhibition of cell growth incubated for 48 hrs by MTT assay", "assay_type": "functional, cell-based", "details": "Caco-2, 48 h"}, "[3]": {"test_system": "HepG2", "assay": "Antiproliferative activity against human HepG2 cells assessed as inhibition of cell growth incubated for 48 hrs by MTT assay", "assay_type": "functional, cell-based", "details": "HepG2, 48 h"}, "[4]": {"test_system": "A549", "assay": "Inhibition of eIF4E/eIF4G interaction in human A549 cells at 2.5 uM incubated for 24 hrs by proximity ligation assay", "assay_type": "cell-based"}, "[5]": {"test_system": "A549", "assay": "Induction of autophagy in human A549 cells assessed as autophagic bodies formation at 2.5 uM incubated for 48 hrs by transmission electron microscopy", "assay_type": "functional, cell-based"}, "[6]": {"test_system": "A549", "assay": "Induction of autophagy in human A549 cells infected with Ad-mCherry-GFP-LC3B assessed as LC3 aggregate formation at 2.5 uM incubated for 48 hrs by fluorescence microscopy", "assay_type": "functional, cell-based"}, "[7]": {"test_system": "A549", "assay": "Induction of autophagy in human A549 cells assessed as change in LC3 expression at 1 to 5 uM incubated for 48 hrs by Western blot analysis", "assay_type": "functional, cell-based"}, "[8]": {"test_system": "A549", "assay": "Induction of autophagy in human A549 cells assessed as change in […] expression at 1 to 5 uM incubated for 48 hrs by Western blot analysis", "assay_type": "functional, cell-based"}, "[9]": {"test_system": "A549", "assay": "Induction of apoptosis in human A549 cells at 1 to 5 uM incubated for 48 hrs by annexin-V and propidium iodide staining based flow cytometric analysis", "assay_type": "functional, cell-based"}, "[10]": {"test_system": "A549", "assay": "Induction of apoptosis in human A549 cells assessed as nuclear shrinkage and chromatin condensation at 1 to 5 uM incubated for 48 hrs by Hoechst 33258 staining based fluorescence microscopy", "assay_type": "functional, cell-based"}, "[11]": {"test_system": "A549", "assay": "Induction of apoptosis in human A549 cells assessed as decrease in Bcl2 level at 1 to 5 uM incubated for 48 hrs by Western blot analysis", "assay_type": "functional, cell-based"}, "[12]": {"test_system": "A549", "assay": "Induction of apoptosis in human A549 cells assessed as activation of PARP at 1 to 5 uM incubated for 48 hrs by Western blot analysis", "assay_type": "functional, cell-based"}, "[13]": {"test_system": "A549", "assay": "Induction of apoptosis in human A549 cells assessed as activation of caspase 3 at 1 to 5 uM incubated for 48 hrs by Western blot analysis", "assay_type": "functional, cell-based"}, "[14]": {"test_system": "A549", "assay": "Induction of apoptosis in human A549 cells at 2.5 uM incubated for 48 hrs in presence of pan caspase inhibitor, Z-VAD-FMK by annexin-V and propidium iodide staining based flow cytometric analysis", "assay_type": "functional, cell-based"}, "[15]": {"test_system": "A549", "assay": "Inhibition of colony formation in human A549 cells incubated for 10 days by crystal violet staining based assay", "assay_type": "functional, cell-based"}, "[16]": {"test_system": "A549", "assay": "Antitumor activity against human A549 cells xenografted in athymic nude mouse assessed as decrease in tumor growth at 50 mg/kg, ip administered once daily for 21 days", "assay_type": "functional", "details": "504 h"}, "[17]": {"assay": "Toxicity in athymic nude mouse xenografted with human A549 cells assessed as changes in body weight at 25 to 50 mg/kg, ip administered once daily for 21 days", "assay_type": "organism-based", "details": "in vivo, 504 h"}, "[18]": {"test_system": "A549", "assay": "In vivo inhibition of PI3K/Akt/mTOR in human A549 cells xenografted in athymic nude mouse assessed as decrease in phosphorylation of 4EBP1 at 25 to 50 mg/kg, ip administered once daily for 21 days by Western blot analysis", "assay_type": "functional, organism-based"}, "[19]": {"test_system": "A549", "assay": "Decrease in phosphorylation of Ki67 in human A549 cells xenografted in athymic nude mouse at 25 to 50 mg/kg, ip administered once daily for 21 days by immunocytochemistry", "assay_type": "functional, organism-based"}, "[20]": {"test_system": "A549", "assay": "In vivo inhibition of PI3K/Akt/mTOR signalling pathway in human A549 cells xenografted in athymic nude mouse assessed as decrease in phosphorylation of mTOR at 25 to 50 mg/kg, ip administered once daily for 21 days by Western blot analysis", "assay_type": "functional, organism-based"}, "[21]": {"assay": "Acute toxicity in SPF Kunming mouse assessed as mortality at 500 to 2000 mg/kg, po administered as single dose measured for 14 days", "assay_type": "organism-based", "details": "in vivo, 336 h"}, "[22]": {"assay": "Acute toxicity in SPF Kunming mouse assessed as body weight at 500 mg/kg, po administered as single dose measured at day 7 (reference value: 30.2g)", "assay_type": "organism-based", "details": "in vivo"}, "[23]": {"assay": "Acute toxicity in SPF Kunming mouse assessed as body weight at 500 mg/kg, po administered as single dose measured at day 14 (reference value: 34.7g)", "assay_type": "organism-based", "details": "in vivo"}, "[24]": {"assay": "Subacute toxicity in SPF Kunming mouse assessed as body weight at 2000 mg/kg, po administered once a day for 7 days (reference value: 28.4g)", "assay_type": "organism-based", "details": "in vivo, 168 h"}, "[25]": {"assay": "Toxicity in athymic nude mouse xenografted with human A549 cells assessed as effect on kidney morphological changes at 25 to 50 mg/kg, ip administered once daily for 21 days by H and E staining based assay", "assay_type": "organism-based", "details": "in vivo, 504 h"}, "[26]": {"assay": "Volume of distribution in Sprague-Dawley rat at 2 mg/kg, iv measured up to 24 hrs by LC/MS-MS analysis", "assay_type": "ADME, organism-based", "details": "in vivo"}, "[27]": {"assay": "Tmax in female Sprague-Dawley rat at 2 mg/kg, iv measured up to 24 hrs by LC/MS-MS analysis", "assay_type": "ADME, organism-based", "details": "in vivo"}, "[28]": {"assay": "AUC (0 to 24 hrs) in male Sprague-Dawley rat at 2 mg/kg, iv measured up to 24 hrs by LC/MS-MS analysis", "assay_type": "ADME, organism-based", "parameters": "dose 2 mg/kg, time < 24 hr, route intravenous", "details": "in vivo"}, "[29]": {"assay": "AUC (0 to 24 hrs) in female Sprague-Dawley rat at 2 mg/kg, iv measured up to 24 hrs by LC/MS-MS analysis", "assay_type": "ADME, organism-based", "parameters": "time < 24 hr, dose 2 mg/kg, route intravenous", "details": "in vivo"}, "[30]": {"assay": "Volume of distribution in steady state in female Sprague-Dawley rat at 2 mg/kg, iv measured up to 24 hrs by LC/MS-MS analysis", "assay_type": "ADME, organism-based", "details": "in vivo, read-out: Vdss"}, "[31]": {"assay": "AUC (0 to 24 hrs) in male Sprague-Dawley rat at 10 mg/kg, po measured up to 24 hrs by LC/MS-MS analysis", "assay_type": "ADME, organism-based", "parameters": "time < 24 hr, dose 10 mg/kg, route oral", "details": "in vivo"}, "[32]": {"assay": "Half life in male Sprague-Dawley rat at 10 mg/kg, po measured up to 24 hrs by LC/MS-MS analysis", "assay_type": "ADME, organism-based", "details": "in vivo"}, "[33]": {"assay": "MRT in male Sprague-Dawley rat at 10 mg/kg, po measured up to 24 hrs by LC/MS-MS analysis", "assay_type": "ADME, organism-based", "details": "in vivo"}, "[34]": {"assay": "AUC (0 to 24 hrs) in female Sprague-Dawley rat at 10 mg/kg, po measured up to 24 hrs by LC/MS-MS analysis", "assay_type": "ADME, organism-based", "parameters": "time < 24 hr, dose 10 mg/kg, route oral", "details": "in vivo"}, "[35]": {"assay": "Half life in female Sprague-Dawley rat at 10 mg/kg, po measured up to 24 hrs by LC/MS-MS analysis", "assay_type": "ADME, organism-based", "details": "in vivo"}, "[36]": {"assay": "Oral bioavailability in female Sprague-Dawley rat at 10 mg/kg measured up to 24 hrs by LC/MS-MS analysis", "assay_type": "ADME, organism-based", "details": "in vivo"}, "[37]": {"assay": "Inhibition of PI3K/Akt/mTOR in human A549 cells assessed as increase in eIF4E/4EBP1 interaction incubated for 48 hrs by m7GTP pull down assay", "assay_type": "cell-based"}, "[38]": {"test_system": "A549", "assay": "In vivo inhibition of eIF4E in human A549 cells xenografted in athymic nude mouse assessed as decrease in phosphorylation of eIF4E at 25 to 50 mg/kg, ip administered once daily for 21 days by immunocytochemistry", "assay_type": "functional, organism-based"}}, "note": "Active and inactive are the calls of the source. The calls are words filed in the database; no cut-off is given here.", "data": [{"molecule": "Fc1ccc(/C=N/Nc2nc(-c3ccc(C(F)(F)F)cc3)cs2)cc1F", "values": [{"measurement": "IC50", "setting": "[1]", "result": 2.61, "unit": "µM"}, {"measurement": "IC50", "setting": "[2]", "result": 14.6, "unit": "µM"}, {"measurement": "IC50", "setting": "[3]", "result": 14.5, "unit": "µM"}, {"measurement": "inhibition", "setting": "[4]", "result": "Active"}, {"measurement": "Activity", "setting": "[5]", "result": "Active"}, {"measurement": "Activity", "setting": "[6]", "result": "Active"}, {"measurement": "Activity", "setting": "[7]", "result": "Active"}, {"measurement": "Activity", "setting": "[8]", "result": "Active"}, {"measurement": "Activity", "setting": "[9]", "result": "Active"}, {"measurement": "Activity", "setting": "[10]", "result": "Active"}, {"measurement": "Activity", "setting": "[11]", "result": "Active"}, {"measurement": "Activity", "setting": "[12]", "result": "Active"}, {"measurement": "Activity", "setting": "[13]", "result": "Active"}, {"measurement": "Activity", "setting": "[14]", "result": "inactive"}, {"measurement": "inhibition", "setting": "[15]", "result": "Dose-dependent effect"}, {"measurement": "inhibition in vivo at 50 mg/kg", "setting": "[16]", "result": 75, "unit": "%"}, {"measurement": "Activity", "setting": "[17]", "result": "Non-Toxic"}, {"measurement": "inhibition", "setting": "[18]", "result": "Active"}, {"measurement": "inhibition", "setting": "[19]", "result": "Active"}, {"measurement": "inhibition", "setting": "[20]", "result": "Active"}, {"measurement": "Activity", "setting": "[21]", "result": "Non-Toxic"}, {"measurement": "Activity", "setting": "[22]", "result": 29.1, "unit": "g"}, {"measurement": "Activity", "setting": "[23]", "result": 33.3, "unit": "g"}, {"measurement": "Activity", "setting": "[24]", "result": 28, "unit": "g"}, {"measurement": "Activity", "setting": "[25]", "result": "Non-Toxic"}, {"measurement": "Vd", "setting": "[26]", "result": 0.67, "unit": "L/kg"}, {"measurement": "Tmax", "setting": "[27]", "result": 2, "unit": "h"}, {"measurement": "AUC(0-t) at 24 h", "setting": "[28]", "result": 155, "unit": "µM·h"}, {"measurement": "AUC(0-t) at 24 h", "setting": "[29]", "result": 133, "unit": "µM·h"}, {"measurement": "Vd", "setting": "[30]", "result": 0.19, "unit": "L/kg"}, {"measurement": "AUC(0-t) at 24 h", "setting": "[31]", "result": 5.34, "unit": "µM·h"}, {"measurement": "half-life", "setting": "[32]", "result": 1.27, "unit": "h"}, {"measurement": "MRT", "setting": "[33]", "result": 1.83, "unit": "h"}, {"measurement": "AUC(0-t) at 24 h", "setting": "[34]", "result": 8.25, "unit": "µM·h"}, {"measurement": "half-life", "setting": "[35]", "result": 1.12, "unit": "h"}, {"measurement": "bioavailability", "setting": "[36]", "result": 31, "unit": "%"}, {"measurement": "Activity", "setting": "[37]", "result": "Active"}, {"measurement": "inhibition", "setting": "[38]", "result": "Active"}]}]}
